Test results published in PubChem BioAssay AID274 (DTP/NCI, 2004).
Values joined by “and” are separate entries in the source; they are usually repeats but may differ in a detail not shown here. Identical values can stand only once. Inconclusive results and toxic doses are left out.

Test system: BDF1 mice, Lewis lung carcinoma iv, survival T/C
Assay: NCI In Vivo Anticancer Drug Screen. Data for tumor model Lewis Lung Carcinoma (intravenous) in B6D2F1 (BDF1) mice
Details: endpoint: median survival time, higher = longer survival
Description: The antitumor activity of compounds was measured in mice bearing transplantable tumors. Survival or tumor size were measured and the results are expressed as the measurement made in the treated group (T) divided by the measurement made in the vehicle treated control group (C). The tumor model used in this assay is Lewis Lung Carcinoma (intravenous) in B6D2F1 (BDF1) mice

[1] = dose: 12.5 mg/kg/injection, schedule: Q01DX009 (ip), vehicle: saline
[2] = dose: 25.0 mg/kg/injection, schedule: Q01DX009 (ip), vehicle: saline
[3] = dose: 50.0 mg/kg/injection, schedule: Q01DX009 (ip), vehicle: saline
[4] = dose: 100.0 mg/kg/injection, schedule: Q01DX009 (ip), vehicle: saline
[5] = dose: 6.25 mg/kg/injection, schedule: Q01DX009 (ip), vehicle: saline
[6] = dose: 12.5 mg/kg/injection, schedule: Q01DX009 (ip), vehicle: saline with Tween-80
[7] = dose: 100.0 mg/kg/injection, schedule: Q01DX009 (ip), vehicle: saline with Tween-80
[8] = dose: 200.0 mg/kg/injection, schedule: Q01DX009 (ip), vehicle: saline with Tween-80
[9] = dose: 3.12 mg/kg/injection, schedule: Q01DX009 (ip), vehicle: Klucel (hydroxypropylcellulose) (HPC)
[10] = dose: 6.25 mg/kg/injection, schedule: Q01DX009 (ip), vehicle: Klucel (hydroxypropylcellulose) (HPC)
[11] = dose: 12.5 mg/kg/injection, schedule: Q01DX009 (ip), vehicle: Klucel (hydroxypropylcellulose) (HPC)
[12] = dose: 25.0 mg/kg/injection, schedule: Q01DX009 (ip), vehicle: Klucel (hydroxypropylcellulose) (HPC)

Which results are given for `COC1CC(CC2CCC(C)C(C(C)C(=O)O)O2)OC2(OC(C)(C3CCC(C)(C4OC(C5OC(O)(CO)C(C)CC5C)CC4C)O3)CC2C)C1C` (stereo not drawn)?
T/C (dose: 0.31 mg/kg/injection, schedule: Q01DX009 (ip), vehicle: Klucel (hydroxypropylcellulose) (HPC)): 99 % of control; T/C (dose: 0.63 mg/kg/injection, schedule: Q01DX009 (ip), vehicle: Klucel (hydroxypropylcellulose) (HPC)): 94 % of control; T/C (dose: 1.25 mg/kg/injection, schedule: Q01DX009 (ip), vehicle: Klucel (hydroxypropylcellulose) (HPC)): 100 % of control; T/C (dose: 5.0 mg/kg/injection, schedule: Q01DX009 (ip), vehicle: Klucel (hydroxypropylcellulose) (HPC)): 96 % of control

How did the T/C (dose: 0.31 mg/kg/injection, schedule: Q01DX009 (ip), vehicle: water) turn out when `COc1cc2oc(=O)ccc2cc1[C@@H]1OC(=O)C2(C)O[C@@H]12` (stereo partly drawn) was run?
The T/C was 96 % of control.

And the T/C (dose: 0.62 mg/kg/injection, schedule: Q01DX009 (ip), vehicle: water)?
Its T/C is 104 % of control.

What about the T/C (dose: 1.25 mg/kg/injection, schedule: Q01DX009 (ip), vehicle: water) of the same compound?
Its T/C is 101 % of control.

What about the T/C (dose: 2.5 mg/kg/injection, schedule: Q01DX009 (ip), vehicle: water) of the same compound?
The T/C was 101 % of control.

What about the T/C (dose: 5.0 mg/kg/injection, schedule: Q01DX009 (ip), vehicle: water) of the same compound?
Its T/C is 100 % of control.

What does the source list for `COC(OC(CO)C(O)S(=O)(=O)O)C(O)S(=O)(=O)O` (stereo not drawn)?
T/C [1]: 105 % of control; T/C [2]: 106 % of control; T/C [3]: 102 % of control; T/C [4]: 99 % of control; T/C (dose: 400.0 mg/kg/injection, schedule: Q01DX009 (ip), vehicle: saline): 90 % of control

What does the source list for `COc1nc(=O)n(C2C=CC(=O)O2)cc1F` (stereo not drawn)?
T/C [5]: 97 % of control; T/C [1]: 102 % of control; T/C [2]: 96 % of control; T/C [3]: 102 % of control; T/C [4]: 97 % of control

What does the source list for `CCC/C=C/C=C/C(=O)OC1/C(=C/C(=O)OC)CC2CC(C(C)O)OC(=O)CC(O)CC3CC(OC(C)=O)C(C)(C)C(O)(CC4C/C(=C/C(=O)OC)CC(/C=C/C(C)(C)C1(O)O2)O4)O3` (stereo not drawn)?
T/C (dose: 18.75 micrograms/kg/injection, schedule: Q01DX009 (ip), vehicle: saline + alcohol): 90 % of control; T/C (dose: 37.5 micrograms/kg/injection, schedule: Q01DX009 (ip), vehicle: saline + alcohol): 98 % of control; T/C (dose: 75.0 micrograms/kg/injection, schedule: Q01DX009 (ip), vehicle: saline + alcohol): 107 % of control

For `C1CN1c1nc(N2CC2)nc(N2CC2)n1`, which T/C (dose: 0.06 mg/kg/injection, schedule: Q01DX009 (ip), vehicle: suspension in saline) is on record?
The T/C was 105 % of control.

What about the T/C (dose: 0.12 mg/kg/injection, schedule: Q01DX009 (ip), vehicle: suspension in saline) of the same compound?
Its T/C is 101 % of control.

And the T/C (dose: 0.25 mg/kg/injection, schedule: Q01DX009 (ip), vehicle: suspension in saline)?
Its T/C is 112 % of control.

`CCCC(=O)Oc1ccc(/C=N/NC(N)=S)nc1` was tested. Which T/C [6] did it give?
The T/C was 104 % of control and 109 % of control.

What about the T/C (dose: 25.0 mg/kg/injection, schedule: Q01DX009 (ip), vehicle: saline with Tween-80) of the same compound?
The T/C was 109 % of control.

And the T/C (dose: 50.0 mg/kg/injection, schedule: Q01DX009 (ip), vehicle: saline with Tween-80)?
Its T/C is 96 % of control and 109 % of control.

What about the T/C [7] of the same compound?
Its T/C is 97 % of control and 104 % of control.

And the T/C [8]?
The T/C was 120 % of control.

With `O=C1c2ccccc2C(=O)c2c3c(cc(NCCNCCO)c21)N(CCO)CCN3` as the compound, how does the T/C (dose: 50.0 mg/kg/injection, schedule: Q01DX009 (ip), vehicle: DMSO) read?
Its T/C is 108 % of control.

What does the source list for `CCCCCCCCCCCC(c1ccccc1)[N+](C)(C)C` (stereo not drawn)?
T/C (dose: 1.0 mg/kg/injection, schedule: Q01DX009 (ip), vehicle: saline): 96 % of control; T/C (dose: 2.0 mg/kg/injection, schedule: Q01DX009 (ip), vehicle: saline): 105 % of control; T/C (dose: 4.0 mg/kg/injection, schedule: Q01DX009 (ip), vehicle: saline): 101 % of control

What does the source list for `O=NN(CCCl)C(=O)NC1CCC(=O)NC1=O` (stereo not drawn)?
T/C (dose: 0.5 mg/kg/injection, schedule: Q01DX009 (ip), vehicle: saline with Tween-80): 115 % of control; T/C (dose: 1.0 mg/kg/injection, schedule: Q01DX009 (ip), vehicle: saline with Tween-80): 103 % of control; T/C (dose: 2.0 mg/kg/injection, schedule: Q01DX009 (ip), vehicle: saline with Tween-80): 185 % of control; T/C (dose: 4.0 mg/kg/injection, schedule: Q01DX009 (ip), vehicle: saline with Tween-80): 247 % of control; T/C (dose: 8.0 mg/kg/injection, schedule: Q01DX009 (ip), vehicle: saline with Tween-80): 104 % of control

With `CCOC(=O)CNC(=O)CCCCSc1ncnc2nc[nH]c12` as the compound, how does the T/C (dose: 20.0 mg/kg/injection, schedule: Q01DX009 (ip), vehicle: Klucel (hydroxypropylcellulose) (HPC)) read?
Its T/C is 102 % of control.

And the T/C (dose: 40.0 mg/kg/injection, schedule: Q01DX009 (ip), vehicle: Klucel (hydroxypropylcellulose) (HPC))?
Its T/C is 106 % of control.

What about the T/C (dose: 80.0 mg/kg/injection, schedule: Q01DX009 (ip), vehicle: Klucel (hydroxypropylcellulose) (HPC)) of the same compound?
Its T/C is 98 % of control.

What about the T/C (dose: 160.0 mg/kg/injection, schedule: Q01DX009 (ip), vehicle: Klucel (hydroxypropylcellulose) (HPC)) of the same compound?
Its T/C is 98 % of control.

And the T/C (dose: 320.0 mg/kg/injection, schedule: Q01DX009 (ip), vehicle: Klucel (hydroxypropylcellulose) (HPC))?
Its T/C is 105 % of control.

What does the source list for `Nc1cc(Cl)c2[nH]cnc2n1`?
T/C (dose: 6.25 mg/kg/injection, schedule: Q01DX009 (ip), vehicle: distilled water + Tween-80): 106 % of control; T/C (dose: 12.5 mg/kg/injection, schedule: Q01DX009 (ip), vehicle: distilled water + Tween-80): 98 % of control; T/C (dose: 25.0 mg/kg/injection, schedule: Q01DX009 (ip), vehicle: distilled water + Tween-80): 109 % of control; T/C (dose: 50.0 mg/kg/injection, schedule: Q01DX009 (ip), vehicle: distilled water + Tween-80): 113 % of control; T/C (dose: 100.0 mg/kg/injection, schedule: Q01DX009 (ip), vehicle: distilled water + Tween-80): 107 % of control

`COc1ccc(C(N)=O)cc1N=NN(C)C` was tested. Which T/C [9] did it give?
The T/C was 95 % of control.

What about the T/C [10] of the same compound?
The T/C was 98 % of control.

What about the T/C [11] of the same compound?
Its T/C is 118 % of control.

And the T/C [12]?
The T/C was 110 % of control.

`O=C1C(=O)c2ccccc2C(O)=C1CC=C(Cl)Cl` was tested. Which T/C [11] did it give?
The T/C was 104 % of control.

What about the T/C [12] of the same compound?
The T/C was 93 % of control.

What about the T/C (dose: 50.0 mg/kg/injection, schedule: Q01DX009 (ip), vehicle: Klucel (hydroxypropylcellulose) (HPC)) of the same compound?
The T/C was 91 % of control.

Which results are given for `CN1CCN(CCCN2c3ccccc3Sc3ccc(C(F)(F)F)cc32)CC1`?
T/C (dose: 3.12 mg/kg/injection, schedule: Q01DX009 (ip), vehicle: saline): 109 % of control; T/C [5]: 120 % of control; T/C [1]: 109 % of control

Which results are given for `O=C1OC(c2ccc(O)cc2)(c2ccc(Oc3ccccc3)cc2)c2ccccc21` (stereo not drawn)?
T/C [7]: 105 % of control; T/C [8]: 112 % of control; T/C (dose: 400.0 mg/kg/injection, schedule: Q01DX009 (ip), vehicle: saline with Tween-80): 99 % of control

Which T/C (dose: 0.62 mg/kg/injection, schedule: Q01DX009 (ip), vehicle: saline) does the source give for `CC(=O)OC1C2(CC3N4C(=O)C5(CO)SSC4(CC31O)C(=O)N5C)OC(C)C(C)(C)C2=O` (stereo not drawn) here?
Its T/C is 171 % of control.

What does the source list for `CC(C)C(=O)OCC1OC(n2cnc3c(=S)nc(N)[nH]c32)C(OC(=O)C(C)C)C1OC(=O)C(C)C` (stereo not drawn)?
T/C [9]: 97 % of control; T/C [10]: 90 % of control

With `COc1cccc2c1C(=O)c1c(O)c3c(c(O)c1C2=O)C[C@@](O)(C(=O)CO)C[C@@H]3OC1CC(N)CC(C)O1` (stereo partly drawn) as the compound, how does the T/C (dose: 0.18 mg/kg/injection, schedule: Q01DX009 (ip), vehicle: water) read?
The T/C was 108 % of control.

And the T/C (dose: 0.37 mg/kg/injection, schedule: Q01DX009 (ip), vehicle: water)?
The T/C was 112 % of control.

Which results are given for `CNc1nc(N(C)C)nc(N(C)C)n1`?
T/C [1]: 96 % of control; T/C [2]: 98 % of control

`CCC1(O)CC2CN(CCc3c([nH]c4ccccc34)C(C(=O)OC)(c3cc4c(cc3OC)N(C)C3C(O)(C(N)=O)C(O)C5(CC)C=CCN6CCC43C65)C2)C1` (stereo not drawn) (tested in a mixture with another compound) was tested. Which T/C (dose: 0.6 mg/kg/injection, schedule: Q04DX003 (ip), vehicle: saline) did it give?
Its T/C is 106 % of control.

What about the T/C (dose: 1.0 mg/kg/injection, schedule: Q04DX003 (ip), vehicle: saline) of the same compound?
Its T/C is 111 % of control.

And the T/C (dose: 1.67 mg/kg/injection, schedule: Q04DX003 (ip), vehicle: saline)?
Its T/C is 97 % of control.

And the T/C (dose: 216.0 micrograms/kg/injection, schedule: Q01DX009 (ip), vehicle: saline)?
Its T/C is 93 % of control.

What about the T/C (dose: 360.0 micrograms/kg/injection, schedule: Q01DX009 (ip), vehicle: saline) of the same compound?
Its T/C is 97 % of control.

`COc1cc(O)c2c(O)c3c(c4c2c1[C@]1(C4)C(C)=CCCC1(C)C)[C@H](O)[C@@]1(O)CC(=O)C(C(N)=O)=C(O)[C@@]1(O)C3=O` was tested. Which T/C (dose: 1.56 mg/kg/injection, schedule: Q01DX009 (ip), vehicle: saline with Tween-80) did it give?
Its T/C is 112 % of control.

And the T/C (dose: 3.13 mg/kg/injection, schedule: Q01DX009 (ip), vehicle: saline with Tween-80)?
Its T/C is 100 % of control.

What about the T/C (dose: 6.25 mg/kg/injection, schedule: Q01DX009 (ip), vehicle: saline with Tween-80) of the same compound?
The T/C was 103 % of control.

And the T/C [6]?
Its T/C is 102 % of control.
